In patent US20260144740A1, “COSMETIC ACTIVE INGREDIENT DERIVED FROM A NON-VOLATILE FRACTION OF CANARIUM EXUDATE AND USES THEREOF” (FLORE SCOLA, priority 2022, published 2026):

Experiments:
[1] = tested on: PCi-SEB human sebocytes; test: Anti-sebum effect: intracellular neutral lipids (Nile Red test) in sebocytes, lipogenesis induced by linoleic acid; format: cell-based; conditions: positive control
Procedure: The aim of this test is to study the anti-sebum effect of the ingredient according to the invention using an in vitro cell model. An extract is prepared according to Example 2.
The procedure is as follows. PCi-SEB human sebocytes derived from induced pluripotent stem (iPS) cells are prepared. The amplification and the maturation of PCi-SEB sebocytes is achieved by incubation in SEB medium for amplification for 2 days then in supplemented SEB medium for maturation for 3 days. The sebocytes are incubated for 24 hours in the presence of the ingredient according to the invention. Lipogenesis is induced by the addition of linoleic acid, then the sebocytes are incubated for 48 hours in the presence of the ingredient according to the invention.
In order to verify efficacy, the following biomarkers are measured: namely, intracellular neutral lipids (Nile Red test) and cellular proteins (Pierce BCA test).
The experimental plan is as follows: • 1 batch (Control): untreated cells incubated in SEB medium (n=3) • 1 batch (EtOH control): untreated cells incubated in SEB medium+EtOH (0.125%)] (n=3) • 3 batches (Test element-treated): cells incubated in medium (SEB+EtOH (0.125%)) and treated with 3 concentrations of test element (n=3) • 1 batch [PC]: cells incubated in SEB medium and treated with TOFA (20 μM)
The ingredient according to the invention was tested at 3 concentrations: C1=5 μg/mL, C2=15 μg/mL and C3=30 μg/mL
The level of neutral lipids was measured in control sebocyte cultures then treated by staining the cells with Nile Red. The values (fluorescence intensity) were reported at the average cellular protein level.
The [Nile-Red] values are expressed in arbitrary units (fluorescence intensity (urf) per mg of cellular protein).

[2] = tested on: interleukin 6 (IL-6); test: Anti-inflammatory effect: IL-6 release by keratinocytes stimulated by UV (ELISA, related to protein level); format: cell-based, human; conditions: positive control
Procedure: This test consists of evaluating the production of inflammatory mediators by human keratinocytes in response to irritant stress. The method is based on measuring the release rate of interleukin 6 (IL-6) by keratinocytes cultured in the presence of the ingredient and stimulated by UV light.
Five solutions are tested. Each is obtained by dilution in a culture medium and obtaining a final concentration of 1% ethanol. […] The second, third and fourth solutions differ in the concentration of the final residue (respectively 1.4 μg/mL, 3.5 μg/mL and 7.0 μg/mL). The fifth solution is dexamethasone (Dexa) (SIGMA Ref D1756) which is tested at 100 µM as a positive control.
On D0, 48 hours after seeding, the cells are rinsed with phosphate-buffered saline (PBS) and then exposed to UVB through the PBS. Immediately after irradiation, the PBS is replaced by the DMEM (Dulbecco's Modified Eagle Medium) test medium comprising the solution to be tested. The cells are returned to 37° C. and incubated for 24 hours.
On D1 (T 24 h), the incubation media are collected and the level of IL-6 is measured using the ELISA assay kit (IL-6 HIGH SENSITIVITY ELISA KIT, ENZO). At the same time, the corresponding cell layers are rinsed with Hank's Balanced Salt Solution (HBSS) and processed for cellular protein assay. A NaOH solution is added to each sample. After incubation, the cell extracts are collected and frozen at −20° C. to await assay with the BCA Protein Assay kit (PIERCE®).
The crude levels of IL-6 (pg per sample) are deduced by interpolation from the standard curve established with the IL-6 standard in the kit. The average of the IL-6 levels is calculated for each sample.
The protein level (μg per sample) is deduced by interpolation from the standard curve established with a bovine serum albumin standard in order to express the IL-6 level in relation to the average protein level. The average level is calculated for each sample.
The average IL-6 level is related to the average protein level. […]

CCCCCCCCCCCCCCOc1ccc(C(=O)O)o1 [TOFA, 5-(tetradecyloxy)-2-furoic acid]
Neutral lipids - Nile Red, Mean, per mg of cellular protein ([1]; 20 μM): 7.01 URF/mg prot.
Nile Red Test, Mean (fluorescence intensity) ([1]; 20 μM): 1679
Lipogenic effect (%) ([1]; 20 μM, vs. EtOH control): −75%
activity at 20 µM ([1]; Homo sapiens, read-out: Neutral lipids (% of controlEtOH)): 25%

C[C@@H]1C[C@H]2[C@@H]3CCC4=CC(=O)C=C[C@]4(C)[C@@]3(F)[C@@H](O)C[C@]2(C)[C@@]1(O)C(=O)CO [Dexa, dexamethasone]
Induced IL-6 ([2]; 100 μM, 24 h after UVB): 105.10 pg/mg prot.
Induced IL-6 (%), with respect to IL-6 induced in the ethanol control ([2]; 100 μM, 24 h after UVB): 8%
inhibition of UV-induced IL-6 release ([2]; same experimental conditions): 92%
